How the values were obtained:
Type in all cases: in vivo
Lolium multiflorum Lamk = assay: Soil sealing treatment pot experiment for controlling Lolium multiflorum Lamk (Example 2)
Aegilops tauschii [1] = assay: Soil sealing treatment pot experiment for controlling Aegilops tauschii (Example 1)
Description: (§1) Referring to an article of Colby, S. R. i.e., Calculation of the synergistic and antagonistic response of herbicide combinations. Weeds 1967, 15, pp. 20-22 (which is incorporated herein in its entirety by reference), the theoretical value E0 of a given mixture of three active ingredients may be predicted according to the following equation, then evaluating whether there is synergy.
(§2) [formula] • wherein: • E0 is the theoretical fresh weight survival rate for the mixture of pyroxasulfone, chlorotoluron and […]; • X is the measured fresh weight survival rate for pyroxasulfone used alone in the same dosage as that in the mixture; • Y is the measured fresh weight survival rate for chlorotoluron used alone in the same dosage as that in the mixture; • Z is the measured fresh weight survival rate for mesosulfuron-methyl used alone in the same dosage as that in the mixture. • E is the measured fresh weight survival rate for the mixture of pyroxasulfone, chlorotoluron and mesosulfuron-methyl. • E0-E value is calculated to evaluate the combined effect of pyroxasulfone, chlorotoluron and mesosulfuron-methyl on the selected weeds.
(§3) In this example, the herbicidal activity of a mixture of pyroxasulfone, chlorotoluron and mesosulfuron-methyl for soil sealing treatment to control Aegilops tauschii is investigated by a pot experiment method under the conditions of a glass greenhouse. This example is carried out in accordance with “NY/T 1155.4-2006 Guidelines for Indoor Bioassay Tests of Pesticides, Herbicides Part 4: Activity Determination Tests, Stem and Leaf Spray Method”.
(§4) • Pyroxasulfone: pyroxasulfone (850 g/Kg, WG) from Adama Agan LTD. • Chlorotoluron: chlorotoluron (90 wt %, WG) from Adama Agan LTD. • Mesosulfuron-methyl: Sigma (30 g/L, OD) from Bayer AG. • Test location: Greenhouse of Institute of Plant Protection, Shandong Academy of Agricultural Sciences • Cultivation of test materials: The test soil is formed by mixing the 20 cm layer loam on the ground surface and the culture medium in a ratio of 3:1 as cultivation soil.
(§5) The test weeds are cultivated in a glass greenhouse at a temperature of 15-30° C. and natural light. A certain amount of Aegilops tauschil seeds are sown in a plastic pot with a diameter of 9 cm, covering with 1-2 mm soil, and putting them in an enamel dish filled with water. The bottom infiltration method is used to water them, waiting for the water to seep to the soil surface, and then transferring to a glass greenhouse for cultivation. The agents are applied on the second day after sowing Aegilops tauschii seeds.
(§6) For each active ingredient, the multiple dilution method is used to obtain the other five lower dosages from the highest dosage. A certain amount of agent is measured by pipette or balance, adding it directly to the water, and then diluting it to the required dosage by the multiple dilution method.
(§7) Spraying treatment: ASS-4 automatic control spraying system with a fan-shaped nozzle is used indoors to spray agent, the running speed is adjusted based on nozzle pressure, flow rate, etc. to spray 50 mL of chemical solution on the actual spray area of 1.1 m^2 (equivalent to 30 liters per mu), arranging the plastic pots to be processed on the spraying table evenly, and spraying evenly. The spraying pressure is 0.35 MPa, and the flow rate of the fan-shaped nozzle is 800 mL/min, spraying in order from low dosage to high dosage. Each treatment is repeated 3 times. After spraying, let it dry for one day, placing it in a glass greenhouse, and watering it regularly to keep moist.
Application time and frequency: the experiment is conducted on the second day after sowing Aegilops tauschii seeds, and the soil is evenly sprayed. The application time is Mar. 10, 2020, with one application.
Weed investigation method and time: after applying the agent, the symptoms of weed damage (such as growth inhibition, chlorosis, deformity, etc.) are recorded in detail. […]

Aegilops tauschii [2] = assay: Soil sealing treatment pot experiment for controlling Aegilops tauschii, more mixing ratios (Example 3)
Description: as §1, §2, §3, §4, §5, §6, §7
Weed investigation method and time: after applying the agent, the symptoms of weed damage (such as growth inhibition, chlorosis, deformity, etc.) are recorded in detail. After 35 days, the fresh weight of aerial part of the weeds in each treatment is weighed, and the measured fresh weight inhibition rate and the measured fresh weight survival rate for each treatment are calculated according to the following equations: […]

[3] = single active ingredient, summary of Table 2

## Cn1nc(C(F)(F)F)c(CS(=O)(=O)C2=NOC(C)(C)C2)c1OC(F)F [pyroxasulfone, 3-[(5-difluoromethoxy-1-methyl-3-trifluoromethylpyrazol-4-yl)methylsulfonyl]-4,5-dihydro-5,5-dimethyl-1,2-isoxazole]
Lolium multiflorum Lamk; 5.625 gai/ha, 35 days
  Measured fresh weight survival rate (%) - E: 69.23%
Lolium multiflorum Lamk; 11.25 gai/ha, 35 days
  Measured fresh weight survival rate (%) - E: 53.85%
Lolium multiflorum Lamk; 22.5 gai/ha, 35 days
  Measured fresh weight survival rate (%) - E: 51.65%
Lolium multiflorum Lamk; 45 gai/ha, 35 days
  Measured fresh weight survival rate (%) - E: 20.88%
Lolium multiflorum Lamk; 90 gai/ha, 35 days
  Measured fresh weight survival rate (%) - E: 0%
Lolium multiflorum Lamk; 180 gai/ha, 35 days
  Measured fresh weight survival rate (%) - E: 0%
Lolium multiflorum Lamk; Lolium multiflorum, soil, 840 h, 5.625 gai/ha, 35 days, read-out: Measured fresh weight inhibition rate (%)
  inhibition at 5.625 g/ha: 30.8%
Lolium multiflorum Lamk; Lolium multiflorum, soil, 840 h, 11.25 gai/ha, 35 days, read-out: Measured fresh weight inhibition rate (%)
  inhibition at 11.25 g/ha: 46.1%
Lolium multiflorum Lamk; Lolium multiflorum, soil, 840 h, 22.5 gai/ha, 35 days, read-out: Measured fresh weight inhibition rate (%)
  inhibition at 22.5 g/ha: 48.4%
Lolium multiflorum Lamk; Lolium multiflorum, soil, 840 h, 45 gai/ha, 35 days, read-out: Measured fresh weight inhibition rate (%)
  inhibition at 45 g/ha: 79.1%
Lolium multiflorum Lamk; Lolium multiflorum, soil, 840 h, 90 gai/ha, 35 days, read-out: Measured fresh weight inhibition rate (%)
  inhibition at 90 g/ha: 100%
Lolium multiflorum Lamk; Lolium multiflorum, soil, 840 h, 180 gai/ha, 35 days, read-out: Measured fresh weight inhibition rate (%)
  inhibition at 180 g/ha: 100%
Lolium multiflorum Lamk; [3]
  effect on Lolium multiflorum Lamk: best effect
Aegilops tauschii [1]; 5.625 gai/ha, 35 days
  Measured fresh weight survival rate (%) - E: 101.3%
Aegilops tauschii [1]; 11.25 gai/ha, 35 days
  Measured fresh weight survival rate (%) - E: 97.4%
Aegilops tauschii [1]; 22.5 gai/ha, 35 days
  Measured fresh weight survival rate (%) - E: 98.7%
Aegilops tauschii [1]; 45 gai/ha, 35 days
  Measured fresh weight survival rate (%) - E: 79.22%
Aegilops tauschii [1]; 90 gai/ha, 35 days
  Measured fresh weight survival rate (%) - E: 75.32%
Aegilops tauschii [1]; 180 gai/ha, 35 days
  Measured fresh weight survival rate (%) - E: 54.55%
Aegilops tauschii [1]; Aegilops tauschii, soil, 840 h, 5.625 gai/ha, 35 days, read-out: Measured fresh weight inhibition rate (%)
  inhibition at 5.625 g/ha: -1.3%
Aegilops tauschii [1]; Aegilops tauschii, soil, 840 h, 11.25 gai/ha, 35 days, read-out: Measured fresh weight inhibition rate (%)
  inhibition at 11.25 g/ha: 2.6%
Aegilops tauschii [1]; Aegilops tauschii, soil, 840 h, 22.5 gai/ha, 35 days, read-out: Measured fresh weight inhibition rate (%)
  inhibition at 22.5 g/ha: 1.3%
Aegilops tauschii [1]; Aegilops tauschii, soil, 840 h, 45 gai/ha, 35 days, read-out: Measured fresh weight inhibition rate (%)
  inhibition at 45 g/ha: 20.8%
Aegilops tauschii [1]; Aegilops tauschii, soil, 840 h, 90 gai/ha, 35 days, read-out: Measured fresh weight inhibition rate (%)
  inhibition at 90 g/ha: 24.7%
Aegilops tauschii [1]; Aegilops tauschii, soil, 840 h, 180 gai/ha, 35 days, read-out: Measured fresh weight inhibition rate (%)
  inhibition at 180 g/ha: 45.5%
Aegilops tauschii [1]; [3]
  control effect on Aegilops tauschii: certain effect
Aegilops tauschii [2]; 45 gai/ha
  Actual fresh weight survival rate (%) - E: 75.0%
Aegilops tauschii [2]; 90 gai/ha
  Actual fresh weight survival rate (%) - E: 51.7%
Aegilops tauschii [2]; 180 gai/ha
  Actual fresh weight survival rate (%) - E: 34.5%
Aegilops tauschii [2]; Aegilops tauschii, soil, 45 gai/ha, read-out: Actual fresh weight inhibition rate %
  inhibition at 45 g/ha: 25%
Aegilops tauschii [2]; Aegilops tauschii, soil, 90 gai/ha, read-out: Actual fresh weight inhibition rate %
  inhibition at 90 g/ha: 48.3%
Aegilops tauschii [2]; Aegilops tauschii, soil, 180 gai/ha, read-out: Actual fresh weight inhibition rate %
  inhibition at 180 g/ha: 65.5%

From US12564194B2, “Herbicide mixture, herbicidal composition, method and kit for controlling undesired vegetation” (Adama Agan Ltd., priority 2020, dated 2026)
